Source: US11008295B2, “Compounds having antiinfective, antitumoral and antifungal activity” (priority 2017, dated 2021)
Where two headings read alike, the source gives them in different places.

How the values were obtained:
HIV = test: microbe, parasite or virus in culture; format: cell-based; settings: for safety index: anti-HIV activity/toxicity profile, MT-2 cells
Text: Assessment of in vitro antiviral activity is usually performed to estimate parameters of antiviral potency and efficacy represented by the percentage of inhibition of HIV activity or IC50. The assay utilized is based on the use of recombinant viruses in which the nef gene, […] for in vitro HIV replication, has been replaced by a Renilla reporter gene so that viral replication can be quantified directly (Garcia-Perez J et al, J Med Virol. 2007 February; 79(2):127-37). The assay was performed infecting MT-2 cells or PHA-activated PBMCs/IL-2 with viral supernatants obtained previously. The study was development in AIDS Immunopathology Unit, National Center of Microbiology, Institute of Health Carlos III, Majadahonda, Madrid, Spain.
All data are expressed as percentage relative to a control with DMSO at the same concentration. Antiviral activity and toxicity curves were performed to the compound at different concentrations.

C. parapsilopsis = test: Antifungal disk diffusion susceptibility test (CLSI M44); format: cell-based, C. parapsilosis
Protocol: (§1) Filamentous fungi and yeasts strains, from clinical origin, were supplied by Microbiology Service from The Princess Hospital, Madrid. They are detailed in Table III.
(§2) Filamentous fungi and yeast cells suspensions in distilled water was prepared from a culture of 24-48 h, depending on species, in Sabouraud agar. Each suspension was adjusted to a fixed size inoculum of 1-5×10^8 CFU/ml with a spectrophotometer (Ferraro, M J National Committee for Clinical Laboratory Standards. 2000).
(§3) Antifungal susceptibility tests were developed following the standardized methodology detailed in document CLSI: M44-4: Method for Antifungal Disk diffusion susceptibility testing of yeasts consisting of disk diffusion on agar Muller-Hinton (supplemented with 2% glucose).

M. abscessus = test: Kirby-Bauer disk diffusion susceptibility test; format: cell-based, Mycobacterium abscessus; settings: M. abscessus; zone of inhibition; 200 μg/disc
Protocol: (§4) Bacterial strains, from clinical origin, were supplied by the National Center for Microbiology, Institute of Health Carlos III (Majadahonda, Madrid). They are detailed in Table I.
(§5) Bacterial cells suspension in sterile saline was prepared from a culture of 24-72 h, depending on bacterial species, in Mueller-Hinton Agar with 5% sheep blood. Each suspension was adjusted to a fixed size inoculum of 1-5×10^8 CFU/ml with a spectrophotometer (Ferraro, M J National Committee for Clinical Laboratory Standards. 2000).
(§6) Kirby-Bauer disk diffusion susceptibility test protocol was utilized to determine the sensitivity or resistance of pathogenic bacteria against the compounds and others antibiotics. The absence of growth around the disks is an indirect measure of the ability of this compound to inhibit an organism (Kirby, W. et al., Antibiotics Annu. 1956-1957:892). After 18 to 72 hours of incubation at […], with or without CO2, under aerobic or anaerobic conditions, depending on the bacterial species, halo of growth inhibition were obtained and evaluated.
(§7) Interpretation of susceptibility and resistance was based on the presence or absence of a zone of inhibition surrounding the disk. Kirby-Bauer disk diffusion susceptibility test is a common method which uses antibiotic-impregnated wafers to test whether bacteria are affected by antibiotics. The size of the zone of inhibition depends on how effective the antibiotic is at stopping the growth of the bacterium. A stronger antibiotic will create a larger zone, because a lower concentration of the antibiotic is enough to stop growth.

T. pulmonis = test: Kirby-Bauer disk diffusion susceptibility test; format: cell-based, Tsukamurella pulmonis; settings: T. pulmonis; zone of inhibition; 200 μg/disc
Protocol: as §4, §5, §6, §7

HT29 cell line (colon) = test: MTT assay, antitumor activity; format: cell-based
B. cereus = test: Kirby-Bauer disk diffusion susceptibility test; format: cell-based, Bacillus cereus; settings: B. cereus; zone of inhibition; 200 μg/disc
Protocol: as §4, §5, §6, §7

C. tropicalis = test: Antifungal disk diffusion susceptibility test (CLSI M44); format: cell-based
Protocol: as §1, §2, §3

C. albicans = test: as above; format: cell-based
Protocol: as §1, §2, §3

C. lusitaniae = test: as above; format: cell-based
Protocol: as §1, §2, §3

C. guilliermondii = test: as above; format: cell-based
Protocol: as §1, §2, §3

A. fumigatus = test: as above; format: cell-based
Protocol: as §1, §2, §3

A. niger = test: as above; format: cell-based
Protocol: as §1, §2, §3

A. flavus = test: as above; format: cell-based
Protocol: as §1, §2, §3

A. terreus = test: as above; format: cell-based
Protocol: as §1, §2, §3

C. glabrata = test: as above; format: cell-based
Protocol: as §1, §2, §3

[1] = test system: CAL33 cell line (head and neck); test: MTT assay, antitumor activity; format: cell-based
[2] = Cellular viability (CellTiter Glo) in parallel to the anti-HIV assay; format: cell-based; settings: human; concentration required to kill 50% of cells; MT-2 cells; read-out: CC50 VIH MT-2
Protocol: All assays for assessing anti-HIV activity were taken in parallel to determine cellular viability of the culture in the presence or absence of different concentrations of the isolated molecule. It was followed exactly the same methodology as in the anti-HIV assay except with the addition of complete DMEM medium instead of supernatant viral, in the same proportion, and the detection of the viability was performed with the viability detection kit CellTiter Glo (Promega), following manufacturer instructions. Viability is directly proportional to the luciferase activity obtained. All data are expressed as percentage relative to a control with DMSO at the same concentration. Antiviral activity and toxicity curves were performed to the compound at different concentrations.

N. carnea = test: Kirby-Bauer disk diffusion susceptibility test; format: cell-based, Nocardia carnea; settings: N. carnea; zone of inhibition; 200 μg/disc
Protocol: as §4, §5, §6, §7

M. fortuitum = test: Kirby-Bauer disk diffusion susceptibility test; format: cell-based; settings: M. fortuitum; zone of inhibition; 200 μg/disc
Protocol: as §4, §5, §6, §7

E. faecalis = test: Kirby-Bauer disk diffusion susceptibility test; format: cell-based; settings: E. faecalis; zone of inhibition; 200 μg/disc
Protocol: as §4, §5, §6, §7

M. chelonae = test: Kirby-Bauer disk diffusion susceptibility test; format: cell-based; settings: M. chelonae; zone of inhibition; 200 μg/disc
Protocol: as §4, §5, §6, §7

S. epidermidis = test: Kirby-Bauer disk diffusion susceptibility test; format: cell-based; settings: S. epidermidis; zone of inhibition; 200 μg/disc
Protocol: as §4, §5, §6, §7

E. coli = test: Kirby-Bauer disk diffusion susceptibility test; format: cell-based; settings: E. coli; zone of inhibition; 200 μg/disc
Protocol: as §4, §5, §6, §7

S. aureus = test: Kirby-Bauer disk diffusion susceptibility test; format: cell-based; settings: S. aureus; zone of inhibition; 200 μg/disc
Protocol: as §4, §5, §6, §7

N. cyriacigeorgica = test: Kirby-Bauer disk diffusion susceptibility test; format: cell-based; settings: N. cyriacigeorgica; zone of inhibition; 200 μg/disc
Protocol: as §4, §5, §6, §7

P. aeruginosa = test: Kirby-Bauer disk diffusion susceptibility test; format: cell-based; settings: P. aeruginosa; zone of inhibition; 200 μg/disc
Protocol: as §4, §5, §6, §7

E. faecium = test: Kirby-Bauer disk diffusion susceptibility test; format: cell-based; settings: E. faecium; zone of inhibition; 200 μg/disc
Protocol: as §4, §5, §6, §7

MCF7 cell line (breast) = test: MTT assay, antitumor activity; format: cell-based
A. baumannii = test: Kirby-Bauer disk diffusion susceptibility test; format: cell-based; settings: A. baumannii; zone of inhibition; 200 μg/disc
Protocol: as §4, §5, §6, §7

[3] = Human immunodeficiency virus 1, MT2
[4] = Human immunodeficiency virus 1, MT2, read-out: IC50 VIH MT-2

With `CCCCCC1=NN(C(=O)CCOC(=O)CCC(=O)O)OC(CCCCC)C1` (centres unmarked) [DOXA-1] the IC50 (HIV; [3]) was 130 nM, the IC50 (HIV; [4]) was 130 nM and the safety index (HIV) was “more than 60”. The “Activity (mm), 200 μg/disc” value (C. parapsilopsis) was 30 mm, the “Activity (mm), 200 μg/disc” value (M. abscessus) was 32 mm and the “Activity (mm), 200 μg/disc” value (T. pulmonis) was 34 mm. For the same compound, the “Inhibition of cell line” value (HT29 cell line (colon); 750 nM) was “moderate inhibition”, the “Activity (mm), 200 μg/disc” value (B. cereus) was 36 mm and the “Activity (mm), 200 μg/disc” value (C. tropicalis) was 30 mm. For the same compound, the “Activity (mm), 200 μg/disc” value (C. albicans) was 25 mm, the “Activity (mm), 200 μg/disc” value (C. lusitaniae) was 38 mm and the “Activity (mm), 200 μg/disc” value (C. guilliermondii) was 38 mm. For the same compound, the “Activity (mm), 200 μg/disc” value (A. fumigatus) was 15 mm, the “Activity (mm), 200 μg/disc” value (A. niger) was 18 mm and the “Activity (mm), 200 μg/disc” value (A. flavus) was 20 mm. The “Activity (mm), 200 μg/disc” value (A. terreus) was 18 mm, the “Activity (mm), 200 μg/disc” value (C. glabrata) was 30 mm and the “Inhibition of cell line” value ([1]; 750 nM) was “moderate inhibition”. The CC50 [2] was 8200 nM, the “Activity (mm), 200 μg/disc” value (N. carnea) was 40 mm and the “Activity (mm), 200 μg/disc” value (M. fortuitum) was 30 mm. For the same compound, the “Activity (mm), 200 μg/disc” value (E. faecalis) was 34 mm, the “Activity (mm), 200 μg/disc” value (M. chelonae) was 34 mm and the “Activity (mm), 200 μg/disc” value (S. epidermidis) was 22 mm. For the same compound, the “Activity (mm), 200 μg/disc” value (E. coli) was 9 mm, the “Activity (mm), 200 μg/disc” value (S. aureus) was 20 mm and the “Activity (mm), 200 μg/disc” value (N. cyriacigeorgica) was 35 mm. The “Activity (mm), 200 μg/disc” value (P. aeruginosa) was 9 mm and the “Activity (mm), 200 μg/disc” value (E. faecium) was 34 mm.

In the case of `CCCCCC1=NN(C(=O)CCOC(C)=O)OC(CCCCC)C1` (centres unmarked) [DOXA-2], the IC50 (HIV; [3]) is reported as 84 nM, the IC50 (HIV; [4]) is reported as 84 nM and the safety index (HIV) is reported as “about 100”. The “Activity (mm), 200 μg/disc” value (C. parapsilopsis) was 18 mm, the “Activity (mm), 200 μg/disc” value (M. abscessus) was 25 mm and the “Activity (mm), 200 μg/disc” value (T. pulmonis) was 41 mm. For the same compound, the “Concentration at which proliferation was inhibited” value (MCF7 cell line (breast)) was 250 nM, the “Concentration of best inhibition” value (HT29 cell line (colon)) was 50 nM and the “Activity (mm), 200 μg/disc” value (B. cereus) was 20 mm. The “Activity (mm), 200 μg/disc” value (C. tropicalis) was 20 mm, the “Activity (mm), 200 μg/disc” value (C. albicans) was 18 mm and the “Activity (mm), 200 μg/disc” value (C. lusitaniae) was 20 mm. The “Activity (mm), 200 μg/disc” value (C. guilliermondii) was 28 mm, the “Activity (mm), 200 μg/disc” value (A. fumigatus) was 30 mm and the “Activity (mm), 200 μg/disc” value (A. niger) was 40 mm. For the same compound, the “Activity (mm), 200 μg/disc” value (A. flavus) was 38 mm, the “Activity (mm), 200 μg/disc” value (A. terreus) was 40 mm and the “Activity (mm), 200 μg/disc” value (C. glabrata) was 18 mm. For the same compound, the “Concentration of optimal inhibition” value [1] was 100 nM, the “Concentration at which proliferation was inhibited” value ([1]; 10-750 nM, 24, 48 and 72 hours) was 50 nM and the CC50 [2] was 7720 nM. For the same compound, the “Activity (mm), 200 μg/disc” value (N. carnea) was 25 mm, the “Activity (mm), 200 μg/disc” value (M. fortuitum) was 25 mm and the “Activity (mm), 200 μg/disc” value (M. chelonae) was 30 mm. For the same compound, the “Activity (mm), 200 μg/disc” value (S. epidermidis) was 10 mm, the “Activity (mm), 200 μg/disc” value (E. coli) was 9 mm and the “Activity (mm), 200 μg/disc” value (A. baumannii) was 9 mm. The “Activity (mm), 200 μg/disc” value (S. aureus) was 10 mm, the “Activity (mm), 200 μg/disc” value (N. cyriacigeorgica) was 26 mm and the “Activity (mm), 200 μg/disc” value (P. aeruginosa) was 9 mm.
